Molecules are shown by their SMILES.

Test [1] deals with T1, Glucagon receptor (Rattus norvegicus, UniProt P30082). Briefly: Effective concentration was determined in cAMP accumulation assay using isolated hepatocytes in the presence rolipram. It is filed as functional, cell-based. Particulars: hepatocyte; call rule not given here. Background: Changes in cAMP serve as a functional read-out for many G protein-coupled receptors.
For test [2], the target named is T1, Glucagon receptor. Briefly: Binding affinity towards Glucagon receptor in rat liver plasma membranes by displacement of 125 I-labelled glucagon. It is filed as cell membranes.
The target of test [3] is T1, Glucagon receptor. Briefly: pA2 value against Glucagon Receptor. Particulars: read-out: pA2 (converted).

T1 sequence (P30082 whole entry): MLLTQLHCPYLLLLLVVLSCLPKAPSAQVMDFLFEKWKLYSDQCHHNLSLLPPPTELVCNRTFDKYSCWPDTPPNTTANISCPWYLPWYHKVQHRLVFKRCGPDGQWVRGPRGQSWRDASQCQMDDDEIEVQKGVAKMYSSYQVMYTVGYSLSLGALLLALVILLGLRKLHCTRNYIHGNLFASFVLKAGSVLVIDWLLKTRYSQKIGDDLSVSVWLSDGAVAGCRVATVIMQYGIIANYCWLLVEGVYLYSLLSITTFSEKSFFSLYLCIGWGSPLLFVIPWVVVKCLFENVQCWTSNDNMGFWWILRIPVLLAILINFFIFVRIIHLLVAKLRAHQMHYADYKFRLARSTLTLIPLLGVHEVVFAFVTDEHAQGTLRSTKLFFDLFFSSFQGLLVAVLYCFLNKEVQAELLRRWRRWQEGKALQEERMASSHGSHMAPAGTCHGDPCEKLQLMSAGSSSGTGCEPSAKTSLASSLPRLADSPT

As for `CSCC[C@H](NC(=O)[C@H](CC(C)C)NC(=O)[C@H](Cc1c[nH]c2ccccc12)NC(=O)[C@H](CCC(N)=O)NC(=O)[C@@H](NC(=O)[C@H](Cc1ccccc1)NC(=O)[C@H](CC(=O)O)NC(=O)[C@H](CCC(N)=O)NC(=O)[C@H](C)NC(=O)[C@H](CCCN=C(N)N)NC(=O)[C@H](CCCN=C(N)N)NC(=O)[C@H](CO)NC(=O)[C@H](CC(=O)O)NC(=O)[C@H](CC(C)C)NC(=O)[C@H](Cc1ccc(O)cc1)NC(=O)[C@H](CCCCN)NC(=O)[C@H](CO)NC(=O)[C@H](Cc1ccc(O)cc1)NC(=O)[C@H](CCC(=O)O)NC(=O)[C@H](CO)NC(=O)[C@@H](NC(=O)[C@H](CC(=O)O)NC(=O)[C@@H](NC(=O)CNC(=O)[C@H](CCC(N)=O)NC(=O)[C@@H](N)CO)[C@@H](C)O)[C@@H](C)O)C(C)C)C(=O)N[C@@H](CC(N)=O)C(=O)N[C@H](C(N)=O)[C@@H](C)O`, the EC50 entry on Glucagon receptor [1] is given as “Not Active”.
The IC50 is the concentration needed to halve the response being measured. Low readings indicate greater potency, high ones weaker potency. With `CSCC[C@H](NC(=O)[C@H](CC(C)C)NC(=O)[C@H](Cc1c[nH]c2ccccc12)NC(=O)[C@H](CCC(N)=O)NC(=O)[C@@H](NC(=O)[C@H](Cc1ccccc1)NC(=O)[C@H](CC(=O)O)NC(=O)[C@H](CCC(N)=O)NC(=O)[C@H](C)NC(=O)[C@H](CCCN=C(N)N)NC(=O)[C@H](CCCN=C(N)N)NC(=O)[C@H](CO)NC(=O)[C@H](CC(=O)O)NC(=O)[C@H](CC(C)C)NC(=O)[C@H](Cc1ccc(O)cc1)NC(=O)[C@H](CCCCN)NC(=O)[C@H](CO)NC(=O)[C@H](Cc1ccc(O)cc1)NC(=O)[C@H](CCC(=O)O)NC(=O)[C@H](CO)NC(=O)[C@@H](NC(=O)[C@@H](NC(=O)CNC(=O)[C@H](CCC(N)=O)NC(=O)[C@H](CO)NC(=O)[C@@H](N)Cc1c[nH]cn1)[C@@H](C)O)[C@@H](C)O)C(C)C)C(=O)N[C@@H](CC(N)=O)C(=O)N[C@H](C(N)=O)[C@@H](C)O`, the half-maximal inhibitory concentration (IC50) on Glucagon receptor [2] was 0.113 µM. In addition, at Glucagon receptor [3], the Kb was 0.631 µM. At Glucagon receptor [1], the EC50 entry is reported as “Not Active”.
On to `CSCC[C@H](NC(=O)[C@H](CC(C)C)NC(=O)[C@H](Cc1c[nH]c2ccccc12)NC(=O)[C@H](CCC(N)=O)NC(=O)[C@@H](NC(=O)[C@H](Cc1ccccc1)NC(=O)[C@H](CC(=O)O)NC(=O)[C@H](CCC(N)=O)NC(=O)[C@H](C)NC(=O)[C@H](CCCN=C(N)N)NC(=O)[C@H](CCCN=C(N)N)NC(=O)[C@H](CO)NC(=O)[C@H](CC(=O)O)NC(=O)[C@H](CC(C)C)NC(=O)[C@H](Cc1ccc(O)cc1)NC(=O)[C@H](CCCCN)NC(=O)[C@H](CO)NC(=O)[C@H](Cc1ccc(O)cc1)NC(=O)[C@H](CCC(=O)O)NC(=O)[C@H](CO)NC(=O)[C@@H](NC(=O)[C@H](C)NC(=O)[C@@H](NC(=O)CNC(=O)[C@H](CCC(N)=O)NC(=O)[C@@H](N)CO)[C@@H](C)O)[C@@H](C)O)C(C)C)C(=O)N[C@@H](CC(N)=O)C(=O)N[C@H](C(N)=O)[C@@H](C)O`, for which, on Glucagon receptor [1], the EC50 entry was “Not Active”.
Take `CSCC[C@H](NC(=O)[C@H](CC(C)C)NC(=O)[C@H](Cc1c[nH]c2ccccc12)NC(=O)[C@H](CCC(N)=O)NC(=O)[C@@H](NC(=O)[C@H](Cc1ccccc1)NC(=O)[C@H](CC(=O)O)NC(=O)[C@H](CCC(N)=O)NC(=O)[C@H](C)NC(=O)[C@H](CCCN=C(N)N)NC(=O)[C@H](CCCN=C(N)N)NC(=O)[C@H](CO)NC(=O)[C@H](CC(=O)O)NC(=O)[C@H](CC(C)C)NC(=O)[C@H](Cc1ccc(O)cc1)NC(=O)[C@H](CCCCN)NC(=O)[C@H](CO)NC(=O)[C@H](Cc1ccc(O)cc1)NC(=O)[C@H](CC(=O)O)NC(=O)[C@H](CO)NC(=O)[C@@H](NC(=O)[C@@H](NC(=O)CNC(=O)[C@H](CCC(N)=O)NC(=O)[C@@H](N)CO)[C@@H](C)O)[C@@H](C)O)C(C)C)C(=O)N[C@@H](CC(N)=O)C(=O)N[C@H](C(=O)O)[C@@H](C)O`: the EC50 entry at Glucagon receptor [1] was “Not Active”.
As to `CSCC[C@H](NC(=O)[C@H](CC(C)C)NC(=O)[C@H](Cc1c[nH]c2ccccc12)NC(=O)[C@H](CCC(N)=O)NC(=O)[C@@H](NC(=O)[C@H](Cc1ccccc1)NC(=O)[C@H](CC(=O)O)NC(=O)[C@H](CCC(N)=O)NC(=O)[C@H](C)NC(=O)[C@H](CCCNC(=N)N)NC(=O)[C@H](CCCNC(=N)N)NC(=O)[C@H](CO)NC(=O)[C@H](CC(=O)O)NC(=O)[C@H](CC(C)C)NC(=O)[C@H](Cc1ccc(O)cc1)NC(=O)[C@H](CCCCN)NC(=O)[C@H](CO)NC(=O)[C@H](Cc1ccc(O)cc1)NC(=O)[C@H](CC(=O)O)NC(=O)[C@H](CO)NC(=O)[C@@H](NC(=O)[C@@H](NC(=O)CNC(=O)[C@H](CCC(N)=O)NC(=O)[C@@H](N)CO)[C@@H](C)O)[C@@H](C)O)C(C)C)C(=O)N[C@@H](CC(N)=O)C(=O)N[C@H](C(=O)O)[C@@H](C)O`, the IC50 on Glucagon receptor [2] was found to be 0.2 µM. In addition, on Glucagon receptor [3], the Kb was 0.708 µM.
The corresponding values for `CSCC[C@H](NC(=O)[C@H](CC(C)C)NC(=O)[C@H](Cc1c[nH]c2ccccc12)NC(=O)[C@H](CCC(N)=O)NC(=O)[C@@H](NC(=O)[C@H](Cc1ccccc1)NC(=O)[C@H](CC(=O)O)NC(=O)[C@H](CCC(N)=O)NC(=O)[C@H](C)NC(=O)[C@H](CCCN=C(N)N)NC(=O)[C@H](CCCN=C(N)N)NC(=O)[C@H](CO)NC(=O)[C@H](CC(=O)O)NC(=O)[C@H](CC(C)C)NC(=O)[C@H](Cc1ccc(O)cc1)NC(=O)[C@H](CCCCN)NC(=O)[C@H](CO)NC(=O)[C@H](Cc1ccc(O)cc1)NC(=O)[C@H](CCC(=O)O)NC(=O)[C@H](CO)NC(=O)[C@@H](NC(=O)[C@@H](Cc1ccccc1)NC(=O)[C@@H](NC(=O)CNC(=O)[C@H](CCC(N)=O)NC(=O)[C@@H](N)CO)[C@@H](C)O)[C@@H](C)O)C(C)C)C(=O)N[C@@H](CC(N)=O)C(=O)N[C@H](C(N)=O)[C@@H](C)O` are 0.1 µM and 0.501 µM.
As for `CC(C)C[C@H](NC(=O)[C@H](Cc1ccc(O)cc1)NC(=O)[C@H](CCCCN)NC(=O)[C@H](CO)NC(=O)[C@H](Cc1ccc(O)cc1)NC(=O)[C@H](CC(=O)O)NC(=O)[C@H](CO)NC(=O)[C@@H](NC(=O)[C@@H](NC(=O)CNC(=O)[C@H](CCC(N)=O)NC(=O)[C@H](CO)NC(=O)[C@@H](N)Cc1c[nH]cn1)[C@@H](C)O)[C@@H](C)O)C(=O)N[C@@H](CC(=O)O)C(=O)N[C@@H](CO)C(=O)N[C@@H](CCCN=C(N)N)C(=O)N[C@@H](CCCN=C(N)N)C(=O)N[C@@H](C)C(=O)N[C@@H](CCC(N)=O)C(=O)N[C@@H](CC(=O)O)C(=O)N[C@@H](Cc1ccccc1)C(=O)N[C@H](C(=O)N[C@@H](CCC(N)=O)C(=O)N[C@@H](Cc1c[nH]c2ccccc12)C(=O)N[C@@H](CC(C)C)C(=O)N[C@@H](CCS)C(=O)N[C@@H](CC(N)=O)C(=O)N[C@H](C=O)[C@@H](C)O)C(C)C`, the EC50 entry on Glucagon receptor [1] is listed as “Not Active”.
Compound `CSCC[C@H](NC(=O)[C@H](CC(C)C)NC(=O)[C@H](Cc1c[nH]c2ccccc12)NC(=O)[C@H](CCC(N)=O)NC(=O)[C@@H](NC(=O)[C@H](Cc1ccccc1)NC(=O)[C@H](CC(=O)O)NC(=O)[C@H](CCC(N)=O)NC(=O)[C@H](C)NC(=O)[C@H](CCCNC(=N)N)NC(=O)[C@H](CCCNC(=N)N)NC(=O)[C@H](CO)NC(=O)[C@H](CC(=O)O)NC(=O)[C@H](CC(C)C)NC(=O)[C@H](Cc1ccc(O)cc1)NC(=O)[C@H](CCCCN)NC(=O)[C@H](CO)NC(=O)[C@H](Cc1ccc(O)cc1)NC(=O)[C@H](CCC(=O)O)NC(=O)[C@H](CO)NC(=O)[C@@H](NC(=O)[C@@H](NC(=O)CNC(=O)[C@H](CCC(N)=O)NC(=O)[C@@H](N)CO)[C@@H](C)O)[C@@H](C)O)C(C)C)C(=O)N[C@@H](CC(N)=O)C(=O)N[C@H](C(=O)O)[C@@H](C)O` (stereo in doubt; 12) showed an IC50 at Glucagon receptor [2] of 1 µM. Further, the Kb at Glucagon receptor [3] was 0.794 µM.
`CSCC[C@H](NC(=O)[C@H](CC(C)C)NC(=O)[C@H](Cc1c[nH]c2ccccc12)NC(=O)[C@H](CCC(N)=O)NC(=O)[C@@H](NC(=O)[C@H](Cc1ccccc1)NC(=O)[C@H](CC(=O)O)NC(=O)[C@H](CCC(N)=O)NC(=O)[C@H](C)NC(=O)[C@H](CCCN=C(N)N)NC(=O)[C@H](CCCN=C(N)N)NC(=O)[C@H](CO)NC(=O)[C@H](CC(=O)O)NC(=O)[C@H](CC(C)C)NC(=O)[C@H](Cc1ccc(O)cc1)NC(=O)[C@H](CCCCN)NC(=O)[C@H](CO)NC(=O)[C@H](Cc1ccc(O)cc1)NC(=O)[C@H](CCC(=O)O)NC(=O)[C@H](CO)NC(=O)[C@@H](NC(=O)[C@@H](NC(=O)CNC(=O)[C@H](CCC(N)=O)NC(=O)[C@@H](N)CO)[C@@H](C)O)[C@@H](C)O)C(C)C)C(=O)N[C@@H](CC(N)=O)C(=O)N[C@H](C(N)=O)[C@@H](C)O`: on Glucagon receptor [1], the EC50 result is “Not Active”.
Take `CSCC[C@H](NC(=O)[C@H](CC(C)C)NC(=O)[C@H](Cc1c[nH]c2ccccc12)NC(=O)[C@H](CCC(N)=O)NC(=O)[C@@H](NC(=O)[C@H](Cc1ccccc1)NC(=O)[C@H](CC(=O)O)NC(=O)[C@H](CCC(N)=O)NC(=O)[C@H](C)NC(=O)[C@H](CCCN=C(N)N)NC(=O)[C@H](CCCN=C(N)N)NC(=O)[C@H](CO)NC(=O)[C@H](CC(=O)O)NC(=O)[C@H](CC(C)C)NC(=O)[C@H](Cc1ccc(O)cc1)NC(=O)[C@H](CCCCN)NC(=O)[C@H](CO)NC(=O)[C@H](Cc1ccc(O)cc1)NC(=O)[C@H](CCC(=O)O)NC(=O)[C@H](CO)NC(=O)[C@@H](NC(=O)[C@H](Cc1ccccc1)NC(=O)[C@@H](NC(=O)[C@H](CCC(N)=O)NC(=O)[C@@H](N)CO)[C@@H](C)O)[C@@H](C)O)C(C)C)C(=O)N[C@@H](CC(N)=O)C(=O)N[C@H](C(N)=O)[C@@H](C)O`: the IC50 on Glucagon receptor [2] came to 0.052 µM. Besides, the Kb at Glucagon receptor [3] was 0.891 µM.
`CSCC[C@H](NC(=O)[C@H](CC(C)C)NC(=O)[C@H](Cc1c[nH]c2ccccc12)NC(=O)[C@H](CCC(N)=O)NC(=O)[C@@H](NC(=O)[C@H](Cc1ccccc1)NC(=O)[C@H](CC(=O)O)NC(=O)[C@H](CCC(N)=O)NC(=O)[C@H](C)NC(=O)[C@H](CCCN=C(N)N)NC(=O)[C@H](CCCN=C(N)N)NC(=O)[C@H](CO)NC(=O)[C@H](CC(=O)O)NC(=O)[C@H](CC(C)C)NC(=O)[C@H](Cc1ccc(O)cc1)NC(=O)[C@H](CCCCN)NC(=O)[C@H](CO)NC(=O)[C@H](Cc1ccc(O)cc1)NC(=O)[C@H](CCC(=O)O)NC(=O)[C@H](CO)NC(=O)[C@@H](NC(=O)[C@@H](NC(=O)CNC(=O)[C@H](CCC(N)=O)NC(=O)[C@@H](N)CO)[C@@H](C)O)[C@@H](C)O)C(C)C)C(=O)N[C@@H](CC(N)=O)C(=O)N[C@H](C(=O)O)[C@@H](C)O` (stereo in doubt; 13): on Glucagon receptor [1], the EC50 result is “Not Active”.

For the origin of these results see ChEMBL document CHEMBL1130110 (J Med Chem, 1997).
